Measured values: patent publication US7033615B2, “Methods for regulating levels of zinc, cadmium and calcium in humans and for diagnosing, or screening for the risk of developing, diseases associated with abnormal levels of cadmium, zinc and calcium in body fluids and tissues” (CancEr2 Inc., priority 1999, dated 2006)

Tests used:
[1] = Counter-exchange of serum cadmium to erythrocytes (erythrocyte Cd/(erythrocyte Cd+serum Cd)) in men given cadmium sulfate; type: in vivo; details: CdSO4 1 mg daily
Description: (§1) Three healthy men with low PSA levels (below 2 ng/ml) volunteered for weekly blood and urine collection while a serial treatment of zinc, zinc with cadmium, and cadmium was administered. Treatment was given daily over a nine week period, followed by three weeks of continued sampling with no treatment. The zinc was administered in the form of zinc sulfate (Zn SO4) at a daily dosage of 75 mg. The cadmium was administered in the form of cadmium sulfate (CdSO4) at a daily dosage of 1 mg. Blood and urine were collected one day prior to the beginning of treatment for purposes of establishing a baseline level of chemicals in the blood and urine. Zinc salt administration began on the second day of the study and was administered each morning. On day 15, the cadmium salt administration was begun in the evening, with continued zinc salt administration continuing in the morning. Zinc administration was discontinued on day 43; cadmium administration continued through day 57. On days 58–78 of the study, neither zinc nor cadmium was administered, but blood and urine samples continued to be collected. Blood and urine were collected one day each week (days 1, 8, 15, etc.) for a total of 12 collection days over an 11 week period. […]
(§2) The second syringe contained no EDTA and was used to collect blood serum. […] All processed blood samples were stored in a −80° C. freezer until analyzed. […]

[2] = tested on: rat tissue vs human tissue; details: rat tissue more sensitive than human tissue; cited from earlier work
erythrocytes = assay: Blockage of calcium penetration into erythrocytes (serum calcium/erythrocyte calcium) in men given cadmium sulfate; type: in vivo; details: three men, CdSO4 1 mg daily
Description: as §1, §2

In the case of `O=S(=O)([O-])[O-].[Cd+2]` [cadmium, cadmium sulfate], the “increase of counter-exchange of serum cadmium to erythrocytes in each man” value ([1]; three healthy low-PSA men, minimum increase per man) is given as no less than 116%, the “average cadmium counter-exchange after cadmium treatment (mean+/-S.D.)” value ([1]; three men, increased from 0.311 +/-0.166) is given as 0.466+/−0.077 and the “sensitivity of rat tissue to cadmium relative to human tissue” value [2] is given as 30 times. The “increase of blockage to calcium penetration in each man” value (erythrocytes) was 178–330% and the “average blockage of calcium penetration after cadmium treatment (mean+/-S.D.)” value (erythrocytes; increased from 114.79+/-21.135, p=0.0492) was 314.001+/−150.942.
